The source made the active and inactive calls. The calls are words filed in the database; no cut-off is given here.
Columns and labels:
[1] = biological target: T1, Thioredoxin reductase 1, cytoplasmic (Homo sapiens, UniProt Q16881); test: Inhibition of TrxR in human SH-SY5Y cells using DTNB as substrate preincubated for 15 mins followed by substrate addition and measured for 20 mins by Ellman's method; format: cell-based
T1 sequence (Q16881 whole entry): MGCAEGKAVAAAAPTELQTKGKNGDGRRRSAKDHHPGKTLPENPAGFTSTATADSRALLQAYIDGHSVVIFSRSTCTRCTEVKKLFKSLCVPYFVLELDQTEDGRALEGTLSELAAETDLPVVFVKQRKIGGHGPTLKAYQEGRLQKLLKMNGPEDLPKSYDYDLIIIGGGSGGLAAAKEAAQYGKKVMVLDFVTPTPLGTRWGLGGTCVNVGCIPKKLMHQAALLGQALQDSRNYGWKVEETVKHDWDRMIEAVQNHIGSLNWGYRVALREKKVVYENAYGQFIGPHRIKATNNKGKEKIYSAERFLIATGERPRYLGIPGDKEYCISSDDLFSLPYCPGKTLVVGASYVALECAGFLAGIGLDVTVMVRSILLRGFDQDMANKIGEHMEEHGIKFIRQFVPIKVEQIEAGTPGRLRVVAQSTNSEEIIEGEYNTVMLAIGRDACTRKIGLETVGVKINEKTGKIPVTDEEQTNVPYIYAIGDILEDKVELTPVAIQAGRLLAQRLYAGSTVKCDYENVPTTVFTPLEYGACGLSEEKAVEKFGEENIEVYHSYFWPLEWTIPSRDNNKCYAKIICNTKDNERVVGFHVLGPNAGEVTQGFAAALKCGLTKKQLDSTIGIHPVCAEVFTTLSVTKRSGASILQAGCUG

[2] = biological target: T2, Thioredoxin reductase 1, cytoplasmic (Rattus norvegicus, UniProt O89049); test: Inhibition of rat TrxR1 using DTNB as substrate preincubated for 15 mins followed by substrate addition and measured for 20 mins by Ellman's method
T2 sequence (O89049 whole entry): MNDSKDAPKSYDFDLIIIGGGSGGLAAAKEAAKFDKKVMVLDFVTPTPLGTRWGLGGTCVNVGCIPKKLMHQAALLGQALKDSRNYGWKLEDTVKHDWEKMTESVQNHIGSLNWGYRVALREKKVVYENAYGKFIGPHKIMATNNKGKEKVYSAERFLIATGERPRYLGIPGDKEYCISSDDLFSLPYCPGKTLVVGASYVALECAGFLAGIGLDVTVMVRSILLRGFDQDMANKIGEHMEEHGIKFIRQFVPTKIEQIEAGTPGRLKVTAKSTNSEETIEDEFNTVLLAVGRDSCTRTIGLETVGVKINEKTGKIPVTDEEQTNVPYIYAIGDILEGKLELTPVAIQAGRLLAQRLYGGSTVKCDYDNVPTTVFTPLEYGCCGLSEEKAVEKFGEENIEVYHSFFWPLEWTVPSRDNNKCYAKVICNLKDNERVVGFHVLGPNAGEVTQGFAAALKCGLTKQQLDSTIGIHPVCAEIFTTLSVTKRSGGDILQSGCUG

[3] = biological target: T1, Thioredoxin reductase 1, cytoplasmic; test: Inhibition of TrxR1 (unknown origin) using DTNB as substrate preincubated for 30 mins in presence of insulin followed by substrate addition by colorimetry
[4] = biological target: T3, Thioredoxin reductase 1, cytoplasmic (Rattus norvegicus) (UniProt O89049); test: […] inhibition of rat TrxR1 using DTNB as substrate preincubated for 15 mins in presence of NADPH followed by substrate addition and measured for 20 mins by Ellman's method
T3 sequence (whole entry): T2 sequence (O89049 whole entry)

SH-SY5Y [5] = test: Cytotoxicity against human SH-SY5Y cells assessed as reduction in cell viability incubated for 72 hrs by MTT assay; format: functional, cell-based
U-87 MG [6] = test: Cytotoxicity against human U87 cells assessed as reduction in cell viability incubated for 72 hrs by MTT assay; format: functional, cell-based, U-87MG ATCC
PBMC = test: Cytotoxicity against human PBMC assessed as reduction in cell viability incubated for 72 hrs by MTT assay; format: cell-based
HaCaT [7] = test: Cytotoxicity against human HaCaT assessed as reduction in cell viability incubated for 72 hrs by MTT assay; format: cell-based
SH-SY5Y [8] = test: Induction of ROS generation in human SH-SY5Y cells incubated for 24 hrs by DHE staining based flow cytometry; format: functional, cell-based
U-87 MG [9] = test: Induction of ROS generation in human U87 cells incubated for 24 hrs by DHE staining based flow cytometry; format: functional, cell-based; conditions: U-87MG ATCC
HaCaT [10] = test: Induction of ROS generation in human HaCaT cells incubated for 24 hrs by DHE staining based flow cytometry; format: cell-based
SH-SY5Y [11] = test: Induction of RNS generation in human SH-SY5Y cells incubated for 24 hrs by DHR staining based flow cytometry; format: functional
U-87 MG [12] = test: Induction of RNS generation in human U87 cells incubated for 24 hrs by DHR staining based flow cytometry; format: functional, cell-based; conditions: U-87MG ATCC
HaCaT [13] = test: Induction of RNS generation in human HaCaT cells incubated for 24 hrs by DHR staining based flow cytometry; format: cell-based
SH-SY5Y [14] = test: Induction of apoptosis in human SH-SY5Y cells assessed as viable cells incubated for 48 hrs by annexin V FITC and propidium iodide staining based flow cytometry (reference value: 92.44 %); format: functional
SH-SY5Y [15] = test: Induction of apoptosis in human SH-SY5Y cells assessed as early apoptotic cells incubated for 48 hrs by annexin V FITC and propidium iodide staining based flow cytometry (reference value: 0.44 %); format: functional
SH-SY5Y [16] = test: Induction of apoptosis in human SH-SY5Y cells assessed as late apoptotic cells incubated for 48 hrs by annexin V FITC and propidium iodide staining based flow cytometry (reference value: 1.37 %); format: functional
SH-SY5Y [17] = test: Induction of apoptosis in human SH-SY5Y cells assessed as necrotic cells incubated for 48 hrs by annexin V FITC and propidium iodide staining based flow cytometry (reference value: 5.75 %); format: functional
[18] = Induction of apoptosis in human HaCaT cells assessed as viable cells incubated for 48 hrs by annexin V FITC and propidium iodide staining based flow cytometry (reference value: 95.78 %); format: cell-based; conditions: read-out: Activity
HaCaT [19] = test: Induction of apoptosis in human HaCaT cells assessed as early apoptotic cells incubated for 48 hrs by annexin V FITC and propidium iodide staining based flow cytometry (reference value: 0.02 %); format: cell-based
HaCaT [20] = test: Induction of apoptosis in human HaCaT cells assessed as late apoptotic cells incubated for 48 hrs by annexin V FITC and propidium iodide staining based flow cytometry (reference value: 0.46 %); format: cell-based
HaCaT [21] = test: Induction of apoptosis in human HaCaT cells assessed as necrotic cells incubated for 48 hrs by annexin V FITC and propidium iodide staining based flow cytometry (reference value: 2.74 %); format: cell-based

Row | SMILES | IC50 [1] [µM] | IC50 [2] [µM] | IC50 [3] [µM] | inhibition [4] | IC50 (SH-SY5Y [5]) [µM] | IC50 (U-87 MG [6]) [µM] | IC50 (PBMC) [µM] | IC50 (HaCaT [7]) [µM] | Activity (SH-SY5Y [8]) | Activity (U-87 MG [9]) | Activity (HaCaT [10]) | Activity (SH-SY5Y [11]) | Activity (U-87 MG [12]) | Activity (HaCaT [13]) | Activity (SH-SY5Y [14]) [%] | Activity (SH-SY5Y [15]) [%] | Activity (SH-SY5Y [16]) [%] | Activity (SH-SY5Y [17]) [%] | viability at 48 h [18] [%] | Activity (HaCaT [19]) [%] | further results
1 | Cc1ccc(C(=O)/C=C/C(=O)N(C2CC2)C(C(=O)NCc2ccccc2)c2ncc(C)cn2)cc1 (stereo not given) | 31.8 | 4.2 | 6.61 | Active | 4.94 | 15.2 | 15.3 | 5.45 | inactive | inactive | Non-Toxic | inactive | inactive | Non-Toxic | 81.45 | 1.1 | 2.91 | 14.54 | 91.7 | 0.07 | Activity (HaCaT [20]): 1.06%; Activity (HaCaT [21]): 7.18%
2 | COc1ccc(C(C(=O)NC2CCCCC2)N(CC(C)C)C(=O)/C=C/C(=O)c2ccc(C)cc2)cc1 (stereo not given) | > 200 | – | – | – | – | – | – | – | – | – | – | – | – | – | – | – | – | – | – | – | –
3 | COc1cc(C(C(=O)NC(C)(C)C)N(CCC(C)C)C(=O)/C=C/C(=O)c2ccc(F)cc2)cc(OC)c1OC (stereo not given) | 8.58 | 1.25 | 2.51 | Active | 2.96 | 2.92 | 7.29 | 1.05 | inactive | inactive | Non-Toxic | >=30% | inactive | Non-Toxic | 37.57 | 0.07 | 0.39 | 61.97 | 65.3 | 0.14 | Activity (HaCaT [20]): 5.06%; Activity (HaCaT [21]): 29.45%
4 | Cc1ccc(C(=O)/C=C/C(=O)N(C2CC2)C(C(=O)NC2CCCCC2)c2ccc(F)cc2)cc1 (stereo not given) | 29.3 | – | – | – | – | – | – | – | – | – | – | – | – | – | – | – | – | – | – | – | –
5 | COc1ccc(C(C(=O)NC(C)(C)C)N(C(=O)/C=C/C(=O)c2ccc(C)cc2)C(C)C)cc1 (stereo not given) | 16 | 1.74 | 0.76 | Active | 0.9 | 0.46 | 2.1 | 0.83 | inactive | inactive | Non-Toxic | >=30% | inactive | Non-Toxic | 71.35 | 0.71 | 2.14 | 25.8 | 78.8 | 0.22 | Activity (HaCaT [20]): 2.92%; Activity (HaCaT [21]): 18.16%
6 | CN(CCOC(=O)/C=C/C(=O)c1ccc(F)cc1)C(C(=O)NC(C)(C)C)c1ccc(F)cc1 (stereo not given) | 7.26 | 0.6 | 0.96 | Active | 11 | 9.7 | 55.7 | 8.3 | inactive | inactive | Non-Toxic | inactive | inactive | Non-Toxic | 75.74 | 2.57 | 6.73 | 14.96 | 93.9 | 0.03 | Activity (HaCaT [20]): 0.83%; Activity (HaCaT [21]): 5.21%
7 | Cc1ccc(C(=O)/C=C/C(=O)N(CC(C)C)C(C(=O)NC(C)(C)C)C(C)(C)C)cc1 (stereo not given) | > 200 | – | – | – | – | – | – | – | – | – | – | – | – | – | – | – | – | – | – | – | –
8 | COc1cc(/C=C/C(=O)N2CCC=CC2=O)cc(OC)c1OC [PIPLARTINE] | – | – | – | – | 5.94 | 7.18 | – | 3.03 | – | – | – | – | – | – | – | – | – | – | – | – | –
9 | COc1ccccc1C(C(=O)NC1CCCCC1)N(C(=O)/C=C/C(=O)c1ccc(C)cc1)C1CCCCC1 (stereo not given) | 51.2 | 3.12 | 5.28 | Active | 1.77 | 1.41 | 1.62 | 1.56 | inactive | inactive | Non-Toxic | >=30% | inactive | Non-Toxic | 57.22 | 0.25 | 0.92 | 41.62 | 89.1 | 0.07 | Activity (HaCaT [20]): 1.15%; Activity (HaCaT [21]): 9.65%
10 | Cc1ccc(C(=O)C[C@H]2C(=O)N(C3CCCCC3)[C@H](c3cccnc3)C(=O)N2Cc2ccccc2)cc1 (racemic) | > 200 | – | – | – | – | – | – | – | – | – | – | – | – | – | – | – | – | – | – | – | –
11 | COc1ccc(C(C(=O)NC(C)(C)C)N(C(=O)/C=C/C(=O)c2ccc(C)cc2)C2CC2)cc1OC (stereo not given) | 76.6 | – | – | – | – | – | – | – | – | – | – | – | – | – | – | – | – | – | – | – | –
12 | CCCN(C(=O)/C=C/C(=O)c1ccc(C)cc1)C(C(=O)NC1CCCCC1)c1ccc(C)cc1 (stereo not given) | 81.6 | – | – | – | – | – | – | – | – | – | – | – | – | – | – | – | – | – | – | – | –
13 | CCCCN(C(=O)/C=C/C(=O)c1ccc(F)cc1)C(C(=O)NCc1ccccc1)C(C)(C)C (stereo not given) | 30.5 | – | – | – | – | – | – | – | – | – | – | – | – | – | – | – | – | – | – | – | –

— ChEMBL document CHEMBL4359871, “Novel electrophilic amides amenable by the Ugi reaction perturb thioredoxin system via thioredoxin reductase 1 (TrxR1) inhibition: Identification of DVD-445 as a new lead compound for anticancer therapy” (Eur J Med Chem, 2019)
